# Laboratory results as given in patent US12336981B2, “Compounds and compositions for the inhibition of NAMPT” (Valo Health, Inc., priority 2010, dated 2025).
# Values joined by “and” are separate entries in the source; they are usually repeats but may differ in a detail not shown here. Identical values can stand only once. Like-named read-outs stand apart in the source and are kept apart here.
# Tests used:
# A2780 cells = assay: In-vitro cell proliferation assay (SRB), A2780 cells; assay type: cell-based; conditions: A2780 cells, 72 hours, SRB, read-out: A2780 IC50
# Experimental: In-Vitro Cell Proliferation Assay
# After overnight incubation at 37° C. and 5% CO2, the compound titrations were performed in a separate dilution plate by serially diluting the compounds in DMSO to make a 1000× stock. The compounds were then further diluted to 10× final concentration in culture media, whereupon 20 μL of each dilution was added to the plated cells with controls (e.g. DMSO and blank) to make a final volume of 200 μL. The final DMSO concentration in each well was 0.1%. The plates were then incubated for 72 hours at 37° C. in a 5% CO2 incubator. The number of viable cells was then assessed using sulforhodamine B (SRB) assay. Cells were fixed at 4° C. for 1 hour with the addition of 50 μL 30% trichloroacetic acid (TCA) to make a final concentration of 6% TCA. The plates were washed four times with H2O and allowed to dry for at least 1 hour, whereupon 100 μL of a 4% SRB in 1% acetic acid solution was added to each well and incubated at room temperature for at least 30 minutes. The plates were then washed three times with 1% acetic acid, dried, and treated with 100 μL of 10 mM Tris-Base solution. The plates were then read in a microplate reader at an absorbance of 570 nm. Background was generated on a separate plate with media only.
# Method for Determining % Inhibition
# First, the signals from the background plate are averaged, then the background was subtracted from the test plates.
# wherein X denotes the compound concentration 1, Y denotes the compound concentration 2, XX denotes the % inhibition at compound concentration 1 (X), and YY denotes the % inhibition at compound concentration 2 (Y).
# NAMPT = target: T1, NAMPT (Homo sapiens, UniProt P43490); assay: Biochemical inhibition assay: NAMPT enzymatic reaction, NMN quantified by mass spectrometry; conditions: NAMPT enzymatic assay; read-out: Biochem IC50
# T1 construct: His tag; host or cells: E. coli
# T1 sequence (P43490 whole entry): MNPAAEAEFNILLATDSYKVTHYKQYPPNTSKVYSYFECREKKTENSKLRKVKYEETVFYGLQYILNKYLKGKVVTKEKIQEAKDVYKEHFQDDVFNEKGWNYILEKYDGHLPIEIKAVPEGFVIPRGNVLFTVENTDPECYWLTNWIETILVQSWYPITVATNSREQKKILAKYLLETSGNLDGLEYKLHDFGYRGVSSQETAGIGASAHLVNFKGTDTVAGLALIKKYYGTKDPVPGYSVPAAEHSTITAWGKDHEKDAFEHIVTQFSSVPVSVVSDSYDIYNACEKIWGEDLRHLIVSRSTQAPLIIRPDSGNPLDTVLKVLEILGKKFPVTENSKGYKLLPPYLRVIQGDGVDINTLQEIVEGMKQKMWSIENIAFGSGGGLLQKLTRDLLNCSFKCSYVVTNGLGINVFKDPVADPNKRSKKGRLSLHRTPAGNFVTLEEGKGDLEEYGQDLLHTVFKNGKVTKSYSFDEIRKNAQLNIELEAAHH
# Procedure, shortened: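 Inhibition of E. coli-expressed His-tagged human NAMPT, measured as NMN formation by mass spectrometry after a 30 min room-temperature reaction containing 1 μM NAM, 100 μM PRPP and 2.5 mM ATP.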
SMILES,"IC50 (A2780 cells; Homo sapiens, A2780, 72 h)",IC50 (NAMPT),IC50 (A2780 cells)
CC(C)COc1cccc(S(=O)(=O)c2ccc(CNC(=O)c3cnc4nccn4c3)cc2)c1,13.2 nM,3.9 nM,
CC(C)COc1cccc(S(=O)(=O)c2ccc(CNC(=O)c3ccc4nccn4c3)cc2)c1,10.6 nM,15.7 nM,
CC(C)COc1cccc(S(=O)(=O)c2ccc(CNC(=O)c3cc4ccncc4o3)cc2)c1,67.7 nM,14.8 nM,
CC(C)COc1cccc(S(=O)(=O)c2ccc(CNC(=O)c3cnc4[nH]ncc4c3)cc2)c1,34.2 nM,28.5 nM,
Cc1cc(C)n(-c2cccc(S(=O)(=O)c3ccc(CNC(=O)c4cc5cc(O)ccc5[nH]4)cc3)c2)n1,100 to 1000 nM,100 to 1000 nM,
Cc1cc(C)n(-c2cccc(S(=O)(=O)c3ccc(CNC(=O)c4cnc5nccn5c4)cc3)c2)n1,4.1 nM,1.8 nM,
Cc1cc(C)n(-c2cccc(S(=O)(=O)c3ccc(CNC(=O)c4ccc5nccn5c4)cc3)c2)n1,0.8 nM,7.2 nM,
Cc1cc(C)n(-c2cccc(S(=O)(=O)c3ccc(CNC(=O)c4cc5cnccc5[nH]4)cc3)c2)n1,1.6 nM,13.2 nM,
Cc1cc(C)n(-c2cccc(S(=O)(=O)c3ccc(CNC(=O)c4ccc5ncsc5c4)cc3)c2)n1,100 to 1000 nM,17.9 nM,
Cc1cc(C)n(-c2cccc(S(=O)(=O)c3ccc(CNC(=O)c4cc5ccncc5s4)cc3)c2)n1,1.5 nM,3.1 nM,
Cc1cc(C)n(-c2cccc(S(=O)(=O)c3ccc(CNC(=O)c4cc5ccncc5o4)cc3)c2)n1,3.5 nM,7.1 nM,
Cc1cc(C)n(-c2cccc(S(=O)(=O)c3ccc(CNC(=O)c4cnc5[nH]ncc5c4)cc3)c2)n1,5.3 nM,25.3 nM,
O=C(NCc1ccc(S(=O)(=O)c2cccc(Oc3ccc(F)cc3)c2)cc1)c1ccc2nccn2c1,34 nM,15.1 nM,
O=C(NCc1ccc(S(=O)(=O)c2cccc(Oc3ccc(F)cc3)c2)cc1)c1cc2ccncc2s1,65.6 nM,2.6 nM,
Cc1nc(-c2cccc(S(=O)(=O)c3ccc(CNC(=O)c4cc5ccncc5s4)cc3)c2)no1,1 nM,3.3 nM,
Cc1nc(-c2cccc(S(=O)(=O)c3ccc(CNC(=O)c4cnc5nccn5c4)cc3)c2)no1,2.3 nM,2.8 nM,
O=C(NCc1ccc(S(=O)(=O)c2cccc(C(=O)NC3CCCC3)c2)cc1)c1ccc2nccn2c1,16.2 nM,10.3 nM,
O=C(NC1CCCC1)c1cccc(S(=O)(=O)c2ccc(CNC(=O)c3cc4ccncc4s3)cc2)c1,13.8 nM,4.8 nM,
O=C(NCc1ccc(S(=O)(=O)c2cccc(C(=O)NC3CCCC3)c2)cc1)c1cnc2nccn2c1,48.3 nM,4.7 nM,
CCN(CC)C(=O)c1cc(F)cc(S(=O)(=O)c2ccc(CNC(=O)c3cc4ccncc4o3)cc2)c1,3.8 nM,10.3 nM,
CCN(CC)C(=O)c1cc(F)cc(S(=O)(=O)c2ccc(CNC(=O)c3cc4cnccc4[nH]3)cc2)c1,3.3 nM,9.3 nM,
O=C(NCc1ccc(S(=O)(=O)c2cccc(OC(F)F)c2)cc1)c1cc2ccncc2o1,3 nM,2.8 nM,
O=C(NCc1ccc(S(=O)(=O)c2cccc(OC(F)F)c2)cc1)c1cnc2nccn2c1,5 nM,2.1 nM,
CN(C)S(=O)(=O)c1cccc(S(=O)(=O)c2ccc(CNC(=O)c3cnc4nccn4c3)cc2)c1,11.2 nM,2 nM,
CCS(=O)(=O)c1cccc(S(=O)(=O)c2ccc(CNC(=O)c3cc4ccncc4s3)cc2)c1,5.4 nM,2.8 nM,
CCS(=O)(=O)c1cccc(S(=O)(=O)c2ccc(CNC(=O)c3ccc4nccn4c3)cc2)c1,6 nM,13.5 nM,
CCS(=O)(=O)c1cccc(S(=O)(=O)c2ccc(CNC(=O)c3cnc4nccn4c3)cc2)c1,64.5 nM,2.7 nM,

SMILES,"IC50 (A2780 cells; Homo sapiens, A2780, 72 h)",IC50 (NAMPT),IC50 (A2780 cells)
CCNC(=O)c1cccc(S(=O)(=O)c2ccc(CNC(=O)c3cnc4nccn4c3)cc2)c1,65.5 nM,3.1 nM,
CCNC(=O)c1cccc(S(=O)(=O)c2ccc(CNC(=O)c3cc4ccncc4o3)cc2)c1,6.4 nM,6 nM,
COCc1cccc(S(=O)(=O)c2ccc(CNC(=O)c3cc4ccncc4s3)cc2)c1,6.7 nM,2.6 nM,
COCc1cccc(S(=O)(=O)c2ccc(CNC(=O)c3cc4ccncc4o3)cc2)c1,13.4 nM,18.5 nM,
COCc1cccc(S(=O)(=O)c2ccc(CNC(=O)c3ccc4nccn4c3)cc2)c1,6.8 nM,6.7 nM,
CNC(=O)c1cccc(S(=O)(=O)c2ccc(CNC(=O)c3cc4ccncc4o3)cc2)c1,14.3 nM,8.1 nM,
CNC(=O)c1cccc(S(=O)(=O)c2ccc(CNC(=O)c3cnc4nccn4c3)cc2)c1,100 to 1000 nM,3.7 nM,
O=C(NCc1ccc(S(=O)(=O)c2cccc(N3CCOCC3)c2)cc1)c1cnc2[nH]ncc2c1,13 nM,16.7 nM,
O=C(NCc1ccc(S(=O)(=O)c2cccc(N3CCOCC3)c2)cc1)c1cnc2nccn2c1,13.5 nM,2.7 nM,
O=C(NCc1ccc(S(=O)(=O)c2cccc(N3CCOCC3)c2)cc1)c1cc2ccncc2s1,1.9 nM,4 nM and 3.6 nM,
O=C(NCc1ccc(S(=O)(=O)c2cccc(N3CCOCC3)c2)cc1)c1cc2ccncc2o1,5.6 nM,5 nM,
O=C(NCc1ccc(S(=O)(=O)c2cccc(N3CCOCC3)c2)cc1)c1ccc2nccn2c1,3.3 nM,7.7 nM,
O=C(NCc1ccc(S(=O)(=O)c2cccc(N3CCCCC3)c2)cc1)c1cnc2nccn2c1,11.4 nM,5.1 nM and 1.2 nM,5.7 nM
O=C(NCc1ccc(S(=O)(=O)c2cccc(N3CCCCC3)c2)cc1)c1cnc2[nH]ncc2c1,14 nM,53.6 nM,
O=C(NCc1ccc(S(=O)(=O)c2cccc(N3CCCCC3)c2)cc1)c1ccc2ncsc2c1,100 to 1000 nM,21 nM,
O=C(NCc1ccc(S(=O)(=O)c2cccc(N3CCCCC3)c2)cc1)c1cc2ccncc2s1,13.6 nM,16.7 nM,
O=C(NCc1ccc(S(=O)(=O)c2cccc(N3CCCCC3)c2)cc1)c1ccc2nccn2c1,3.4 nM,11.4 nM,
O=C(NCc1ccc(S(=O)(=O)c2cccc(N3CCCCC3)c2)cc1)c1cc2cnccc2[nH]1,3.3 nM,14.4 nM,
O=C(NCc1ccc(S(=O)(=O)c2cccc(CN3CCCCC3)c2)cc1)c1cnc2nccn2c1,30.6 nM,1.9 nM,
O=C(NCc1ccc(S(=O)(=O)c2cccc(CN3CCCCC3)c2)cc1)c1ccc2nccn2c1,3.5 nM,9.1 nM,
CC(C)c1cccc(S(=O)(=O)c2ccc(CNC(=O)c3cc4ccncc4o3)cc2)c1,7 nM,4.5 nM,
CC(C)c1cccc(S(=O)(=O)c2ccc(CNC(=O)c3cnc4nccn4c3)cc2)c1,5.3 nM,2.9 nM,
CC(C)c1cccc(S(=O)(=O)c2ccc(CNC(=O)c3cnc4[nH]ncc4c3)cc2)c1,6.3 nM,13.9 nM,
CC(C)Oc1cccc(S(=O)(=O)c2ccc(CNC(=O)c3cnc4[nH]ncc4c3)cc2)c1,24.5 nM,46.1 nM,
CC(C)Oc1cccc(S(=O)(=O)c2ccc(CNC(=O)c3cc4ccncc4o3)cc2)c1,14.4 nM,12.6 nM,
CC(C)Oc1cccc(S(=O)(=O)c2ccc(CNC(=O)c3cnc4nccn4c3)cc2)c1,10.5 nM,2.3 nM,
